Values quoted from earlier work, collected in patent publication US5942536A, “N-[2-substituted-3-(2-aminoethyl)-1H-indol-5-YL]-Amides: new 5-HT1F agonists” (Eli Lilly and Company, priority 1998, dated 1999).

Key:
neurogenic inflammation = conditions: literature (Moskowitz)
[1] = literature (Humphrey, et al.)
[2] = system: cephalic vascular smooth muscle; conditions: literature (Humphrey, et al.)
5-HT1F receptor = target: T1, 5-HT1F receptor (Homo sapiens, UniProt P30939); conditions: literature (Weinshank); reference for Emax
T1 sequence (P30939 1-366): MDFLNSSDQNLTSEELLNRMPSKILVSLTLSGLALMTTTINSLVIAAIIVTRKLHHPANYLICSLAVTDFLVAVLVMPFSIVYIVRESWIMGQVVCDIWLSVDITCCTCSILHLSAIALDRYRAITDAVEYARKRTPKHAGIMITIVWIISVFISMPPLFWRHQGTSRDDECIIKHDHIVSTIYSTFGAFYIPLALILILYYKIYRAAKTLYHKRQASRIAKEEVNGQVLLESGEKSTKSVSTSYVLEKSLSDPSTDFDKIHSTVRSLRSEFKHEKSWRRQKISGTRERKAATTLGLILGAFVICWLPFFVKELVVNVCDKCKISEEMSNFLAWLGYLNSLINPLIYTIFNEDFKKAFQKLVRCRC

Compound	block of neurogenic inflammation (neurogenic inflammation)	effective in the treatment of migraine [1]	contraction of cephalic vascular smooth muscle [2]	effect on forskolin stimulated cAMP production (5-HT1F receptor)
CNS(=O)(=O)Cc1ccc2[nH]cc(CCN(C)C)c2c1 [sumatriptan]	blocked	effective in the treatment of migraine	contract cephalic vascular smooth muscle	–
NCCc1c[nH]c2ccc(O)cc12 [serotonin]	–	–	–	maximal effect
